Assay results: ChEMBL document CHEMBL5380850, “Discovery of the First Raptor (Regulatory-Associated Protein of mTOR) Inhibitor as a New Type of Antiadipogenic Agent” (J Med Chem, 2023)
Activity calls are given as the source filed them. No cut-off for these calls is given here.

Experiments:
Mus musculus [1] = test: Anti-obesity activity in high fat diet-induced obese C57BL/6J mouse model assessed as reduction in plasma insulin level at 40 mg/kg, ip administered every two days for 46 days; format: functional, organism-based; details: time 46.0 day
Mus musculus [2] = test: Anti-obesity activity in high fat diet-induced obese C57BL/6J mouse assessed as decrease in size of adipocytes in epididymis white adipose tissue at 40 mg/kg, ip administered every two days for 46 days by H and E staining based microscopy; format: functional, organism-based; details: time 46.0 day
3T3-L1 [3] = test: Anti-adipogenic activity against mouse 3T3-L1 cells assessed as decrease in triglyceride level at 0.01 to 10 uM by Oil Red O staining based microscopic analysis; format: functional, cell-based; details: dose 0.01-10 µM
Mus musculus [4] = test: Anti-obesity activity in high fat diet-induced obese C57BL/6J mouse assessed as reduction in visceral fat content by measuring perirenal white adipose tissue weight at 40 mg/kg, ip administered every two days for 46 days; format: functional, organism-based; details: time 46.0 day
3T3-L1 [5] = test: Anti-adipogenic activity against mouse 3T3-L1 cells assessed as downregulation of FAS mRNA expression level at 0.1 to 1 uM incubated for 6 days by RT-qPCR analysis; format: functional, cell-based; details: dose 0.1-1 µM, time 6.0 day
Mus musculus [6] = test: Anti-obesity activity in high fat diet-induced obese C57BL/6J mouse model assessed as increase in COX4 expression level in brown adipocyte at 40 mg/kg, ip administered every two days for 46 days by immunohistochemical analysis; format: functional, organism-based; details: time 46.0 day
mTORC1 (Mus musculus) [7] = target: mTORC1 (Mus musculus) (UniProt Q9JLN9); test: Inhibition of mTORC1 formation in mouse 3T3-L1 cells assessed as increase in phosphorylated-4E-BP1 expression level at 10 uM incubated for 24 hrs by Western blot analysis; format: cell-based
[8] = Cytotoxicity against mouse 3T3-L1 cells assessed as reduction in cell viability incubated for 24 hrs by MTT assay; format: toxicity, cell-based
3T3-L1 [9] = test: Anti-adipogenic activity in siRNA-mediated LC3B knockdown mouse 3T3-L1 cells assessed as decrease in triglyceride level at 10 uM by Oil Red O staining based microscopic analysis; format: functional, cell-based
mTORC1 (Mus musculus) [10] = target: mTORC1 (Mus musculus) (UniProt Q9JLN9); test: Inhibition of mTORC1 formation in mouse 3T3-L1 cells assessed as decrease in phosphorylated-S6K1 expression level at 10 uM incubated for 24 hrs by Western blot analysis; format: cell-based
3T3-L1 [11] = test: Anti-adipogenic activity against mouse 3T3-L1 cells assessed as downregulation of FAS protein expression level at 0.1 to 1 uM incubated for 6 days by Western blot analysis; format: functional, cell-based; details: dose 0.1-1 µM, time 6.0 day
mTORC1 (Mus musculus) [12] = target: mTORC1 (Mus musculus) (UniProt Q9JLN9); test: Inhibition of mTORC1 formation in mouse 3T3-L1 cells assessed as mLST8 expression level at 10 uM incubated for 24 hrs by reciprocal co-immunoprecipitation assay; format: cell-based
[13] = target: Serine/threonine-protein kinase mTOR (Mus musculus) (UniProt Q9JLN9); test: Inhibition of mTOR signalling in mouse 3T3-L1 cells assessed as mTOR phosphorylation at S2481 residue at 0.1 to 10 uM incubated for 24 hrs by Western blot analysis; format: cell-based; details: dose 0.1-10 µM
3T3-L1 [14] = test: Anti-adipogenic activity against mouse 3T3-L1 cells assessed as downregulation of C/EBPalpha mRNA expression level at 0.1 to 1 uM incubated for 24 hrs by RT-qPCR analysis; format: functional, cell-based; details: dose 0.1-1 µM
mTORC1 (Mus musculus) [15] = target: mTORC1 (Mus musculus) (UniProt Q9JLN9); test: Inhibition of mTORC1 formation in mouse 3T3-L1 cells assessed as mTOR expression level at 10 uM incubated for 24 hrs by reciprocal co-immunoprecipitation assay; format: cell-based
3T3-L1 [16] = test: Anti-adipogenic activity against mouse 3T3-L1 cells assessed as downregulation of DGAT2 mRNA expression level at 0.1 to 1 uM incubated for 6 days by RT-qPCR analysis; format: functional, cell-based; details: dose 0.1-1 µM, time 6.0 day
Mus musculus [17] = test: In vivo inhibition of mTOR signalling in high fat diet-induced obese C57BL/6J mouse model assessed as decrease in mTOR phosphorylation at S2481 in liver at 40 mg/kg, ip administered every two days for 46 days by Western blot analysis; format: functional, organism-based; details: time 46.0 day
3T3-L1 [18] = test: Anti-adipogenic activity in mouse 3T3-L1 cells assessed as increase in co-localization of lipid droplets and autophagolysosomes at 10 uM by Bodipy and LysoTracker staining based immunofluorescence analysis; format: functional, cell-based
Mus musculus [19] = test: Anti-obesity activity in high fat diet-induced obese C57BL/6J mouse model assessed as reduction in free fatty acid level at 40 mg/kg, ip administered every two days for 46 days; format: functional, organism-based; details: time 46.0 day
3T3-L1 [20] = test: Anti-adipogenic activity in SiRNA mediated Raptor knockdown mouse 3T3-L1 cells assessed as PPARgamma expression level at 10 uM by Western blot analysis; format: functional, cell-based
3T3-L1 [21] = test: Anti-adipogenic activity against mouse 3T3-L1 cells assessed as downregulation of C/EBPbeta protein expression level at 0.1 to 1 uM incubated for 24 hrs by Western blot analysis; format: functional, cell-based; details: dose 0.1-1 µM
3T3-L1 [22] = test: Anti-adipogenic activity in SiRNA mediated Raptor knockdown mouse 3T3-L1 cells assessed as C/EBPalpha expression level at 10 uM by Western blot analysis; format: functional, cell-based
Mus musculus [23] = test: Anti-obesity activity in high fat diet-induced obese C57BL/6J mouse model assessed as change in daily food uptake at 40 mg/kg, ip administered every two days for 46 days; format: functional, organism-based; details: time 46.0 day
3T3-L1 [24] = test: Anti-adipogenic activity in SiRNA mediated Raptor knockdown mouse 3T3-L1 cells assessed as FAS expression level at 10 uM by Western blot analysis; format: functional, cell-based
[25] = Selectivity index, ratio of IC50 for cytotoxicity against mouse 3T3-L1 cells to EC50 for anti-adipogenic activity against mouse 3T3-L1 cells; format: cell-based; details: read-out: Ratio IC50/EC50
3T3-L1 [26] = test: Anti-adipogenic activity against mouse 3T3-L1 cells assessed as downregulation of C/EBPalpha protein expression level at 0.1 to 1 uM incubated for 24 hrs by Western blot analysis; format: functional, cell-based; details: dose 0.1-1 µM
3T3-L1 [27] = test: Anti-adipogenic activity against mouse 3T3-L1 cells at terminal differentiation stage assessed as decrease in triglyceride level at 1 uM and measured on 6 to 9 days by Oil Red O staining based spectroscopic analysis; format: functional, cell-based; details: time 6-9 day
Mus musculus [28] = test: Anti-obesity activity in high fat diet-induced obese C57BL/6J mouse model assessed as increase in glucose clearance at 40 mg/kg, ip administered every two days for 3 weeks pretreated with compound and followed by glucose challenge and measured upto 120 mins by IPGTT assay; format: functional, organism-based
[29] = target: Serine/threonine-protein kinase mTOR (Mus musculus) (UniProt Q9JLN9); test: Inhibition of mTOR signalling in mouse 3T3-L1 cells assessed as upregulation of LC3I expression level at 0.1 to 10 uM incubated for 24 hrs by Western blot analysis; format: cell-based; details: dose 0.1-10 µM
3T3-L1 [30] = test: Anti-adipogenic activity against mouse 3T3-L1 cells assessed as downregulation of DGAT2 protein expression level at 0.1 to 1 uM incubated for 6 days by Western blot analysis; format: functional, cell-based; details: dose 0.1-1 µM, time 6.0 day
Mus musculus [31] = test: Anti-obesity activity in high fat diet-induced obese C57BL/6J mouse model assessed as reduction in plasma AST level at 40 mg/kg, ip administered every two days for 46 days; format: functional, organism-based; details: time 46.0 day
mTORC1 (Mus musculus) [32] = target: mTORC1 (Mus musculus) (UniProt Q9JLN9); test: Inhibition of mTORC1 formation in mouse 3T3-L1 cells assessed as Raptor expression level at 10 uM incubated for 24 hrs by reciprocal co-immunoprecipitation assay; format: cell-based
Mus musculus [33] = test: Anti-obesity activity in high fat diet-induced obese C57BL/6J mouse model assessed as increase in COX4 expression level in inguen white adipose tissue at 40 mg/kg, ip administered every two days for 46 days by immunohistochemical analysis; format: functional, organism-based; details: time 46.0 day

## C=C(C)[C@@]12OC3(c4ccccc4)O[C@@H]1[C@@H]1[C@H](O)[C@](Cl)(COC(=O)c4ccccc4)[C@@H](O)[C@]4(O)C(=O)C(C)=C[C@H]4[C@@]1(O3)[C@H](C)[C@H]2OC(C)=O
Mus musculus [1]
  Activity: Active
Mus musculus [2]
  Activity: Active
3T3-L1 [3]
  Activity: Active
Mus musculus [4]
  Activity: Active
3T3-L1 [5]
  Activity: Active
Mus musculus [6]
  Activity: Active
mTORC1 (Mus musculus) [7]
  inhibition: Active
[8]
  IC50 at 24 h: > 100 µM
3T3-L1 [9]
  Activity: Active
mTORC1 (Mus musculus) [10]
  inhibition: Active
3T3-L1 [11]
  Activity: Active
mTORC1 (Mus musculus) [12]
  inhibition: Active
[13]
  inhibition: Active
3T3-L1 [14]
  Activity: Active
mTORC1 (Mus musculus) [15]
  inhibition: Active
3T3-L1 [16]
  Activity: Active
Mus musculus [17]
  inhibition: Active
3T3-L1 [18]
  Activity: inactive
Mus musculus [19]
  Activity: Active
3T3-L1 [20]
  Activity: Active
3T3-L1 [21]
  Activity: Active
3T3-L1 [22]
  Activity: Active
Mus musculus [23]
  Activity: inactive
3T3-L1 [24]
  Activity: Active
[25]
  selectivity ratio: > 1030
3T3-L1 [26]
  Activity: Active
3T3-L1 [27]
  Activity: Active
Mus musculus [28]
  Activity: Active
[29]
  inhibition: Active
3T3-L1 [30]
  Activity: Active
Mus musculus [31]
  Activity: Active
mTORC1 (Mus musculus) [32]
  inhibition: Active
Mus musculus [33]
  Activity: Active
